Results: patent US20010044404A1, “Cleaning process and composition” (3M Innovative Properties Company, priority 1995, published 2001)

Columns and labels:
[1] = Hydrolytic stability under more severely basic conditions (aqueous KOH reflux); type: physicochemical; conditions: refluxed at 58° C. for 19 hours
Method: To assess hydrolytic stability under more severely basic conditions, C4F9OCH3 (125 g of 99.8% purity, 0.5 mole) was combined with potassium hydroxide ([…], dissolved in 26.1 g water) in a 250 mL flask equipped with an overhead stirrer, a condenser, and a thermometer, and the resulting solution was refluxed at 58° C. for 19 hours. Water (50 mL) was added to the solution after refluxing, and the resulting product was distilled. The lower fluorochemical phase of the resulting distillate was separated from the upper phase and was washed with water (100 mL) to yield 121.3 g of recovered C4F9OCH3, which was identical in purity and composition to the starting material (as shown by gas chromatography).

[2] = Paraffinic oil removal: solvating agent, then rinse in boiling solvent; conditions: methyl caproate/dipropylene glycol di-n-butyl ether 30 seconds, boiling rinse 30 seconds
Method: The above-described test coupon was dipped into a paraffinic oil comprising a mixture of linear and branched hydrocarbons (DuoSeal Pump Oil, available from Sargent Welch), was immersed in mixed solvating agent comprising approximately 50% methyl caproate and 50% dipropylene glycol di-n-butyl ether for 30 seconds, and was then rinsed in boiling alkoxy-substituted perfluorocompound for 30 seconds. The percent oil removal was determined in the above-described manner.

[3] = Mineral oil removal from aluminum coupon, sonication in solvent; conditions: sonicated 1 minute
Method: In the following Examples and Comparative Examples, the cleaning ability of the alkoxy-substituted perfluorocompounds used in the cleaning process of the invention was further evaluated. A 1.28 cm×1.28 cm×0.225 cm wire-wrapped, aluminum coupon was coated with white heavy mineral oil (available from Aldrich Chemical) by immersing the coupon in an oil-filled beaker. The initial amount of the oil on the coupon was determined by weighing it on an analytical balance to the nearest 0.1 mg. The coupon was immersed in a container of solvent and sonicated for 1 minute at the indicated temperature (see Table 3 below for the solvents and temperatures used). The coupon was then weighed again, and the results were recorded in Table 3 as percent oil removal.

[4] = Open cup flash point ASTM D1310-86; type: physicochemical
Method: (§1) Various properties were measured for C4F9OCH3, CHClFCF2OCH3, and blends of each ether compound with cosolvent, trans-1,2-dichloroethylene (hereinafter, t-DCE) or n-butyl bromide, at various weight ratios.

[5] = Stability in the presence of acid (96% sulfuric acid, GLC); type: physicochemical
Method: To assess hydrolytic stability under acidic conditions, C4F9OCH3 (15 g, 0.06 mole) was combined with sulfuric acid (10 g of 96% by weight, 0.097 mole) in a 50 mL flask containing a stir bar and fitted with a reflux condenser. The resulting mixture was stirred for 16 hours at room temperature, and then the resulting upper fluorochemical phase was separated from the resulting lower sulfuric acid phase. […] Chem. 49, 4007 (1984), which states that “[f]luorine atoms attached to carbon which also bears an alkyl ether group are known to be labile to electrophilic reagents. They are readily hydrolyzed in concentrated sulfuric acid, thus providing a route to some esters of fluoroacids.”

[6] = Pump oil removal with n-C6H14/perfluorocompound mixture at room temperature, ultrasonic; conditions: 40 volume % n-C6H14, 60 volume % fluorinated component, 60 seconds
Method: The above-described test coupon was dipped into DuoSeal Pump Oil (available from Sargent-Welch) and was then immersed in a mixture of 40 volume % n-C6H14 and 60 volume % alkoxy-substituted perfluorocompound (a cleaning composition of the invention) for 60 seconds at room temperature with ultrasonic agitation. The percent oil removal was determined in the above-described manner.

[7] = Closed cup flash point ASTM D3278-96; type: physicochemical
Method: as §1

Which “Stability in the presence of base” value [1] does the source give for COC(F)(F)C(F)(F)C(F)(F)C(F)(F)F [Example C4F9OCH3, perfluorobutyl methyl ether] here?
The value was “stable in the presence of the base”.

And the “Percent Soil Removed” value [2]?
Its value is 99.8%.

What about the percent oil removal ([3]; 23 ° C.) of the same compound?
The percent oil removal was 60.3%.

And the percent oil removal ([3]; 50 ° C.)?
The percent oil removal was 98.7%.

What about the percent oil removal ([3]; 60 ° C.) of the same compound?
Its percent oil removal is 99.9%.

And the “Open Cup Flash Point (ASTM D1310-86)” value ([4]; 20 weight % ether, 80 % t-DCE)?
The value was “none”.

And the “Open Cup Flash Point (ASTM D1310-86)” value ([4]; 50 weight % ether, 50 % t-DCE)?
The value was “none”.

What about the “Open Cup Flash Point (ASTM D1310-86)” value ([4]; 80 weight % ether, 20 % t-DCE) of the same compound?
Its value is “none”.

What about the “Open Cup Flash Point (ASTM D1310-86)” value ([4]; 100 weight % ether, 0 % t-DCE) of the same compound?
Its value is “none”.

What about the “Stability in the presence of acid” value ([5]; 96% sulfuric acid, 16 hours at room temperature) of the same compound?
The value was “stable in the presence of the acid”.

What about the “Stability in Presence of Acid: conversion to ester” value ([5]; neat ether, sulfuric acid as in Stability in the Presence of Acid section) of the same compound?
The value was “no rxn. (0%”.

And the “Percent Soil Removed” value [6]?
Its value is 92.5%.

And the “Closed Cup Flash Point (ASTM D3278-96)” value ([7]; 20 weight % ether, 80 % n-butyl bromide)?
Its value is “none^4”.

And the “Closed Cup Flash Point (ASTM D3278-96)” value ([7]; 30 weight % ether, 70 % n-butyl bromide)?
The value was “none^4”.

And the “Closed Cup Flash Point (ASTM D3278-96)” value ([7]; 50 weight % ether, 50 % n-butyl bromide)?
Its value is “none^4”.

What about the “Closed Cup Flash Point (ASTM D3278-96)” value ([7]; 80 weight % ether, 20 % n-butyl bromide) of the same compound?
The value was “none^4”.

What about the “Closed Cup Flash Point (ASTM D3278-96)” value ([7]; 100 weight % ether, 0 % n-butyl bromide, raised to 140° F. (60° C.)) of the same compound?
The value was “none^4”.
